Data reported in patent publication US9867857B2, “Acetobacter and gluconacetobacter strains and their metabolites for use in inhibiting xanthine oxidase” (Food Industry Research And Development Institute, priority 2014, dated 2018).

Tested on: ICR mice
Assay: Experimental uricemia: potassium oxonate-induced high serum uric acid
Format: in vivo
Conditions: potassium oxonate 400 mg/kg + allopurinol 10 mg/kg fed, 1 h after dosing
Description: Acetobacter pasteurianus strain AHU01 was inoculated onto an M1A plate and cultured for 2 days at 30° C. The plate was washed with 7 ml of sterile water as seed broth. 0.5 ml of the seed broth was inoculated into 50 ml of a custom media (1% soy peptone, 0.2% yeast extract, 3% glucose, 0.2% malt extract, and 3% fructose) in a 250 ml triangular flask and incubated with shaking at 150 rpm for 7 days at 30° C. The medium was then collected and centrifuged at 3000 rpm for 15 minutes. Following centrifugation, the supernatant was collected, lyophilized, and freeze-dried to form a solid fermentation product for use in animal experiments.
ICR mice were used as experimental animals. Potassium oxonate, a uricase inhibitor, was used to induce a high level of uric acid in the serum of the mice. Mice were fasted for one hour and then fed saline or potassium oxonate (400 mg/kg) via a feeding tube. After one hour, potassium oxonate-treated mice were fed saline, allopurinol (10 mg/kg), or the Acetobacter pasteurianus strain AHU01 fermentation product (150 mg or 200 mg resuspended in saline per mouse) prepared as described above. Ten animals were used for each experimental group and for the control group. The animals were sacrificed after one hour and the level of uric acid in their serum was analyzed.

With `Oc1ncnc2[nH]ncc12` [allopurinol] the “serum uric acid concentration” value was 2.82 ± 0.28 mg/dL.
